Results reported in publication PMC3663118, “Structure of the protein core of translation initiation factor 2 in apo, GTP-bound and GDP-bound forms” (Acta Crystallographica Section D: Biological Crystallography, 2013).

Key:
[1] = target: T1, IF2 (protein core, residues 1-363) (Thermus thermophilus, UniProt P48515); assay: X-ray crystal structure, […] A, crystal soaking; format: binding; settings: 30 s soak with GTP-containing cryoprotectant; Mg2+ bound; pH 7.5 protein buffer; G-domain P-loop site; GTP occupancy 0.68
T1 construct: gene infB; proteolysed during crystallization to residues 1-363 (40 kDa; N domain, G domain, domain II, start of domain III); one molecule per asymmetric unit
T1 sequence (P48515 1-363): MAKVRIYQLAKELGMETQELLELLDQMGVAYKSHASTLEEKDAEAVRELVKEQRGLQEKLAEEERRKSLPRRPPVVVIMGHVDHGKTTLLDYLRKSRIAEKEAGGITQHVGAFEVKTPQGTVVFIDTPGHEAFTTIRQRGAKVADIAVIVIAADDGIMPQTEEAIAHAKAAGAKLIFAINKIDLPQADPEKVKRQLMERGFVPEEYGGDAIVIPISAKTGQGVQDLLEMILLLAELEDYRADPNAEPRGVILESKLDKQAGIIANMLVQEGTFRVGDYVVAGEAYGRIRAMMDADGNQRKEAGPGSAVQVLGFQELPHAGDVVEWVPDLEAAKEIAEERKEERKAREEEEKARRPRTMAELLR

[2] = target: T1, IF2 (protein core, residues 1-363); assay: X-ray crystal structure, […] A, crystal soaking; format: binding; settings: 5 mM GDP added to the crystallization drop; Mg2+ bound; pH 7.5 protein buffer; G-domain P-loop site

SMILES	X-ray crystal structure, 2.8 A, crystal soaking [1]	X-ray crystal structure, 2.3 A, crystal soaking [2]
Nc1nc2c(ncn2[C@@H]2O[C@H](COP(=O)(O)OP(=O)(O)OP(=O)(O)O)[C@@H](O)[C@H]2O)c(=O)[nH]1 [GTP]	4b3x, 4b48, 4b47 for the apo, GTP and GDP complexes, respectively	
Nc1nc2c(ncn2[C@@H]2O[C@H](COP(=O)(O)OP(=O)(O)O)[C@@H](O)[C@H]2O)c(=O)[nH]1 [GDP]		4b3x, 4b48, 4b47 for the apo, GTP and GDP complexes, respectively
